How the values were obtained:
Candida albicans = details: cited from earlier work
[1] = system: tumor and cancer in mice experimental models; details: skin, bile duct, esophageal, large intestinal, oral cancer and liver tumor models; cited from earlier work
Ebstein-Barr virus = details: cited from earlier work
Pseudomonas aeruginosa = details: cited from earlier work
[2] = system: Rhizopus stolonifer, Penicillium expansum, Aspergilus niger; details: compared with MIC for dermatophytic fungi; cited from earlier work
[3] = system: dermatophytic fungi such as Trichophyton mentagrophytes, Trichophyton rubrum, Trichophyton concentricum and Epidermophyton floccosum; details: cited from earlier work
Vero cells = details: African green monkey, 3 days
Escherichia coli = details: cited from earlier work
NADPH oxidase = details: cited from earlier work
[4] = system: Mycobacterium tuberculosis H37Ra strain (ATCC 25166); experiment: Microplate Alamar Blue assay (MABA), growth inhibition; format: cell-based; details: two-fold serial dilution from 50 to 0.025 μg/ml, read-out: MIC against M. tuberculosis H37Ra
Experimental: Mycobacterium tuberculosis H37Ra strain (ATCC 25166) was grown in 100 ml of Middlebrook 7H9 broth supplemented with 0.2% glycerol, 1.0 gm/L of casitone, 10% OADC, and 0.05% Tween 80. The complete medium was referred to as 7H9GC-Tween. The bacteria were incubated in 500-ml flasks on a rotary shaker at 200 rpm and 37° C. until the optical density at 550 nm reached 0.4-0.5. The bacteria were washed twice with phosphate-buffered saline and then suspended in 20 ml of phosphate-buffered saline. The suspension was passed through an 8-μm-pore-size filter to eliminate clumps. The number of the bacteria in the filtrates was counted by plating the bacteria in Middlebrook 7H10 agar. The filtrates were stored at −80° C.
Anti-tuberculous testing was performed in a 96-well microplate as previously described (Collins, L. and Franzblau, S. G. 1997). […]
The plates were sealed with Parafilm and were incubated at 37° C. for 5 days. […] The results were recorded at 24 h post-reagent addition.
A blue color in the well was interpreted as no growth, reflecting the activity of the test compound in the well. A pink color was scored as growth and reflected the lack of activity of the test compound. A few wells appeared violet after 24 h of incubation, but they invariably changed to pink after another day of incubation and thus were scored as growth (while the adjacent blue wells remained blue). […]

Staphylococcus aureus = details: cited from earlier work
Bacillus subtilis = details: cited from earlier work
[5] = system: nitric oxide synthase production in RAW264 (mice macrophage) cell line; details: concentration of 250 (unit not given), cited from earlier work
xanthine oxidase = xanthine oxidase (Homo sapiens, UniProt P47989); details: cited from earlier work
xanthine oxidase, sequence (P47989 whole entry, species assumed): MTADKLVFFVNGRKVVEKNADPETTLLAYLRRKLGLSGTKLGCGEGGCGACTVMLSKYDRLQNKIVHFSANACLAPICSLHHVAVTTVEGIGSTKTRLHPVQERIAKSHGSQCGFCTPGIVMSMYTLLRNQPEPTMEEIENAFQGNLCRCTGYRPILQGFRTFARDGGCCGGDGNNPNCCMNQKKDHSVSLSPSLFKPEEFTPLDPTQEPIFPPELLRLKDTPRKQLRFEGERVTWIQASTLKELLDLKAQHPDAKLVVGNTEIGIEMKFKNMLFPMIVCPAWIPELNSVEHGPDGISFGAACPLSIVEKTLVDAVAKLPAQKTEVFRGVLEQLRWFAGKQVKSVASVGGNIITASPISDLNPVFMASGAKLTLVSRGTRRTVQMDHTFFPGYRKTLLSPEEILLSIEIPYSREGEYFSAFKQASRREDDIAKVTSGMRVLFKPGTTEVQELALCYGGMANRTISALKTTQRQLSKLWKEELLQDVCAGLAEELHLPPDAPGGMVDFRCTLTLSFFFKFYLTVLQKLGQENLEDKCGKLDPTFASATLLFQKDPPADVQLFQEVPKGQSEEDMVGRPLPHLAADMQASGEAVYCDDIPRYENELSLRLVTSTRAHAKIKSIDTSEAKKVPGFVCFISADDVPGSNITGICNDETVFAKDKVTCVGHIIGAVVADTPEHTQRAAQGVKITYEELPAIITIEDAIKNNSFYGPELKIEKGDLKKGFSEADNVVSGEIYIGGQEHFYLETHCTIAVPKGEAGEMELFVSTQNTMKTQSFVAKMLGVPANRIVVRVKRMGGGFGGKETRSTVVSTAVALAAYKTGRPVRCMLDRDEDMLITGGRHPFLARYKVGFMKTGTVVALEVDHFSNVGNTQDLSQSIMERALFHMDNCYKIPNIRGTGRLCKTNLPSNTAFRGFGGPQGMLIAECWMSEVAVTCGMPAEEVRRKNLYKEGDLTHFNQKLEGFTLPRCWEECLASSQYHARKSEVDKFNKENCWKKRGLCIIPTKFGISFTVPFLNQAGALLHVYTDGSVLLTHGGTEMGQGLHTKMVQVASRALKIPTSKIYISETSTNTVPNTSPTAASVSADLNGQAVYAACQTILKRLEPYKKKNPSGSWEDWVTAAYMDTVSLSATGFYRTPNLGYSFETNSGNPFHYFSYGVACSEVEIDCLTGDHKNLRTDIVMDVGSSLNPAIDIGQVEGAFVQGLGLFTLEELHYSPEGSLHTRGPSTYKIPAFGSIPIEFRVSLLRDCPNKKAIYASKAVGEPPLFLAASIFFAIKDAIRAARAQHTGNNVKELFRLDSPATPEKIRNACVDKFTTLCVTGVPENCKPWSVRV

C=CC(OC(C)=O)c1ccc(OC(C)=O)cc1 (stereo not drawn) [1′-acetoxychavicol acetate, 1′-Acetoxychavicol acetate]
growth inhibition of Candida albicans (Candida albicans): could not inhibit the growth | inhibition of tumor and cancer formation [1]: can inhibit the formation of many tumor and cancer | inhibition of activation of tumor virus (Ebstein-Barr virus): could inhibit the activation of tumor virus | growth inhibition of Pseudomonas aeruginosa (Pseudomonas aeruginosa): could not inhibit the growth | growth inhibition of Rhizopus stolonifer, Penicillium expansum, Aspergilus niger [2]: inhibited the growth of several other fungi | minimal inhibitory concentrations (MIC) against dermatophytic fungi [3]: 50 to 250 µg/mL | toxic level against Vero cells (concentration giving less than half the viable cells of negative control) (Vero cells): 2.0 µg/mL | growth inhibition of Escherichia coli (Escherichia coli): could not inhibit the growth | inhibition of the function of NADPH oxidase (NADPH oxidase): could inhibit the function | MIC [4]: 0.1 µg/mL | growth inhibition of Staphylococcus aureus (Staphylococcus aureus): could slightly inhibit the growth | growth inhibition of Bacillus subtilis (Bacillus subtilis): could not inhibit the growth | inhibition of nitric oxide synthase production, lipopolysaccharide stimulated ([5]; 100 ng/ml bacterial lipopolysaccharide): could completely inhibit | inhibition of nitric oxide synthase production, interferon-γ stimulated ([5]; 100 ng/ml interferon-γ): 80% | inhibition of the function of xanthine oxidase (xanthine oxidase): could inhibit the function

Source: patent US20020192262A1, “1'-Acetoxychavicol acetate for tuberculosis treatment” (National Science and Technology Development Agency, priority 2001, published 2002)
